Assay results from patent publication US7893077B2, “Bisaryl-sulfonamides” (Amgen Inc., priority 2004, dated 2011).

Molecular target: T1, PPARγ (Homo sapiens, UniProt P37231)
T1 construct: made in house
T1 sequence (P37231 1-505): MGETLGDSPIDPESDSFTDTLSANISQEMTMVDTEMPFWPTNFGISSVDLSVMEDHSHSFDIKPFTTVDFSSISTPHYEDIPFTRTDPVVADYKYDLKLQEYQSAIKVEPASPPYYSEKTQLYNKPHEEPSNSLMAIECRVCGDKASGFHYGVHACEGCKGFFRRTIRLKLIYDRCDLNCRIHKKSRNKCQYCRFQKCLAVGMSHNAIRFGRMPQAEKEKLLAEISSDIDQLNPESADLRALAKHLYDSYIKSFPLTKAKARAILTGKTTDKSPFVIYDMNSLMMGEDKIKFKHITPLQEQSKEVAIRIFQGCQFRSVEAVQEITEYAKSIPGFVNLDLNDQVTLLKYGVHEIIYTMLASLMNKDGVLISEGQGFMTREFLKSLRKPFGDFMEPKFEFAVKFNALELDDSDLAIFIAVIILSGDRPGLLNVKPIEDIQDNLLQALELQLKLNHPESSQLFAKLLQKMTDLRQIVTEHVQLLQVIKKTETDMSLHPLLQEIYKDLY
Assay: PPARγ ligand binding assay utilizing [3H]-BRL 49653 as the radioligand (filtration)
Settings: concentration required to reduce by 50% the specific binding of [3H]-BRL 49653
Procedure, shortened: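 Displacement of 10 nM [3H]-BRL 49653 from PPARγ-GST fusion protein in Tris-HCl pH 8.0 buffer with KCl, DTT, BSA and NP-40, 15 min incubation, then glutathione-bead capture for 1 h. Bound radioactivity counted after filtration washes; IC50 is concentration giving 50% loss of specific binding, reported in ranges.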

SMILES	IC50 [µM]
O=C(c1cc(NS(=O)(=O)c2ccc(Cl)cc2Cl)ncc1Sc1ccc(S(=O)(=O)N2CCCCC2)cc1)C1CC1 [Compound 128, 2,4-dichloro-N-{4-cyclopropanecarbonyl-5-[4-(piperidine-1-sulfonyl)-phenylsulfanyl]-pyridin-2-yl}-benzenesulfonamide]	< 1
O=C(c1cc(NS(=O)(=O)c2ccc(C(F)(F)F)cc2Cl)ncc1Sc1ccc(S(=O)(=O)N2CCOCC2)cc1)C1CC1 [Compound 129, 2-Chloro-N-{4-cyclopropanecarbonyl-5-[4-(morpholine-4-sulfonyl)-phenylsulfanyl]-pyridin-2-yl}-4-trifluoromethyl-benzenesulfonamide]	< 1
CCCCc1cc(NS(=O)(=O)c2ccc(C(F)(F)F)cc2Cl)nnc1Sc1ccc(S(=O)(=O)N2CCOCC2)cc1 [Compound 130, 3-(2′-chloro-4′-trifluoromethyl)phenylsulfonylamino-5-n-butyl-6-(4″-N-morpholinesulfonyl)phenylthiopyridazine]	< 1
CCCCc1cc(NS(=O)(=O)c2ccc(Cl)cc2Cl)nnc1Sc1ccc(S(=O)(=O)N2CCOCC2)cc1 [Compound 131, 3-(2′,4′-dichloro)phenylsulfonylamino-5-n-butyl-6-(4″-N-morpholinesulfonyl)phenylthiopyridazine]	< 1
CCCCc1cc(NS(=O)(=O)c2ccc(Cl)cc2Cl)nnc1Sc1ccc(S(=O)(=O)N2CCCCC2)cc1 [Compound 132, 3-(2′,4′-dichloro)phenylsulfonylamino-5-n-butyl-6-(4″-N-piperidinesulfonyl)phenylthiopyridazine]	< 1
CCCCc1cc(NS(=O)(=O)c2ccc(Cl)cc2Cl)nnc1Sc1ccc(S(=O)(=O)C2CCCC2)cc1 [Compound 133, 3-(2′,4′-dichloro)phenylsulfonylamino-5-n-butyl-6-(4″-cyclopentanesulfonyl)phenylthiopyridazine]	< 1
CCCCc1cc(NS(=O)(=O)c2ccc(C(F)(F)F)cc2Cl)nnc1Sc1ccc(S(=O)(=O)C2CCCC2)cc1 [Compound 134, 3-(2′-chloro-4′-trifluoromethyl)phenylsulfonylamino-5-n-butyl-6-(4″-cyclopentanesulfonyl)phenylthiopyridazine]	< 1
CC(C)c1cc(NS(=O)(=O)c2ccc(C(F)(F)F)cc2Cl)nnc1Sc1ccc(S(=O)(=O)N2CCOCC2)cc1 [Compound 135, 3-(2′-chloro-4′-trifluoromethyl)phenylsulfonylamino-5-iso-propyl-6-(4″-N-morpholinesulfonyl)phenylthiopyridazine]	< 10
Cc1cc(NS(=O)(=O)c2ccc(C(F)(F)F)cc2Cl)nnc1Sc1ccc(S(=O)(=O)N2CCCCC2)cc1 [Compound 136, 2-Chloro-N-{5-methyl-6-[4-(piperidine-1-sulfonyl) -phenylsulfanyl]-pyridazin-3-yl}-4-trifluoromethyl-benzenesulfonamide]	< 1
Cc1cc(Sc2ccc(S(=O)(=O)N3CCCCC3)cc2)nnc1NS(=O)(=O)c1ccc(C(F)(F)F)cc1Cl [Compound 137, 2-Chloro-N-{4-methyl-6-[4-(piperidine-1-sulfonyl) -phenylsulfanyl]-pyridazin-3-yl}-4-trifluoromethyl-benzenesulfonamide]	< 10
Cc1cc(S(=O)(=O)Nc2cc(C)c(Sc3ccc(S(=O)(=O)N4CCCCC4)cc3)nn2)c(Cl)cc1Cl [Compound 138, 2,4-Dichloro-5-methyl-N-{5-methyl-6-[4-(piperidine-1-sulfonyl)-phenylsulfanyl]-pyridazin-3-yl}-benzenesulfonamide]	< 1
Cc1cc(S(=O)(=O)Nc2nnc(Sc3ccc(S(=O)(=O)N4CCCCC4)cc3)cc2C)c(Cl)cc1Cl [Compound 139, 2,4-Dichloro-5-methyl-N -{4-methyl-6-[4-(piperidine-1-sulfonyl)-phenylsulfanyl]-pyridazin-3-yl}-benzenesulfonamide]	< 1
Cc1cc(S(=O)(=O)Nc2ccc(Sc3ccc(S(=O)(=O)N4CCCCC4)cc3)nn2)c(Cl)cc1Cl [Compound 140, 2,4-Dichloro-5-methyl-N-{6-[4-(piperidine-1-sulfonyl) -phenylsulfanyl]-pyridazin-3-yl}-benzenesulfonamide]	< 1
